Reference: patent US9169268B2, “Use of 7-alkoxy fangchinoline compounds in preventing, alleviating and/or treating depression” (Peking University, priority 2012, dated 2015)

What was measured:
[1] = system: chronic unpredictable stress (CUS) model in rats; assay: Forced swimming test in chronic unpredictable stress (CUS) model in rats; assay type: in vivo; conditions: 7 days
Description: (§1) The chronic unpredictable stress model is usually used as a depression model. The experimental method is as follows. Stimulation includes forced swimming (10° C., 6 min), tail clamping (1 cm from the tail tip, 1 min), water deprivation (24 h), fasting (24 h), isolated housing (24 h), tail suspension (1 h), immobility (2 h), high-speed horizontal oscillation (120 times/min, 1 h), foot shock for 45 minutes (mean 1 mA, time course 1 s, once/min). These stressors were randomly scheduled over a one-week period and repeated throughout the 23-day experiment. The non-stress control group was housed under normal conditions. Time: between 9:00 a.m. and 2:00 p.m. Since Day 15, the animals in each group were daily intragastrically administered with the subject medicament and double distilled water based on body weight (blank group and CUS model group) respectively, 60 minutes before the stress. […] Behavior and sleep electroencephalogram analyses were carried out on Day 22-23 of the stress. On Day 21, 60 minutes after the final administration, a sucrose solution intake test was carried out and sleep electroencephalogram was recorded simultaneously. On Day 22, EPM and forced swimming tests were carried out.

[2] = system: chronic unpredictable stress (CUS) model in rats; assay: Sucrose solution preference in CUS model in rats; assay type: in vivo; conditions: 7 days
Description: as §1

[3] = system: chronic unpredictable stress (CUS) model in rats; assay: Autonomous movement in CUS model in rats; assay type: in vivo; conditions: 7 days
Description: as §1

[4] = system: chronic unpredictable stress (CUS) model in rats; assay: Elevated plus-maze (EPM) anxiety test in CUS model in rats; assay type: in vivo
Description: as §1

GSK-3β = GSK-3β (Homo sapiens, UniProt P49841); assay: GSK-3β activity assay (Z′-LYTE); assay type: biochemical; conditions: n = 3; read-out: Mean EC50 in the inhibition of GSK-3β activity
Chain of GSK-3β (P49841 whole entry): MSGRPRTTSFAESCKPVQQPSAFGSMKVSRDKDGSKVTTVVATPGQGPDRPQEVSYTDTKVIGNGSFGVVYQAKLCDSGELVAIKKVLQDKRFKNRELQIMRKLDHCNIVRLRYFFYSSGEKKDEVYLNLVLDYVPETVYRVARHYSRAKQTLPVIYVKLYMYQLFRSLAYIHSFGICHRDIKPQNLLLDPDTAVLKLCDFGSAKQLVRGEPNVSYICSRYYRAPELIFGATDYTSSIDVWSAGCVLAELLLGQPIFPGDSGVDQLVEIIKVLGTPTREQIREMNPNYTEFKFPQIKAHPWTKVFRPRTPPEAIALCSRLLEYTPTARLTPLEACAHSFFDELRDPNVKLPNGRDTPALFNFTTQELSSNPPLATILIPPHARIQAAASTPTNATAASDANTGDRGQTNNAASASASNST
Description: The GSK-3β phosphorylation level was determined by using a Z′-LYTE assay (Life Technologies). The assay was performed in a 384-well plate. The wells of the testing plate were divided into blank control wells (without the enzyme), enzyme control wells (without the testing substance), and testing wells (with the enzyme and the testing substance at various concentrations). The inhibition rate of the testing substance is expressed as: inhibition %=(E−S)/(E−B)×100, wherein E is the average emission ratio of enzyme control wells; B is the average emission ratio of blank control wells; S is the emission ratio of the testing sample wells. The median effective concentration of each compound (EC50 μM) was calculated by using the resultant inhibition rate of each sample at various concentrations.

[5] = Serum AST and ALT in mice after 14 days of intragastric administration; assay type: in vivo
Description: Blood was collected from epicanthal, stood at room temperature for about 2 hours, and centrifuged for 12 minutes at 3000 r/min after coagulation. The serum was removed and centrifuged again. Alanine transaminase (ALT) and aspartate transaminase (AST) levels were determined

[6] = mouse serum, 30 mg/kg/day intragastric, 14 days
[7] = mouse serum, 60 mg/kg/day intragastric, 14 days

Compound	Sucrose solution preference ([2]; 7.5 mg/kg intragastric daily)	Sucrose solution preference ([2]; 15 mg/kg intragastric daily)	Sucrose solution preference ([2]; 30 mg/kg intragastric daily)	Autonomous movement Distance ([3]; 7.5 mg/kg intragastric daily)	Autonomous movement Speed ([3]; 7.5 mg/kg intragastric daily)	Autonomous movement Distance ([3]; 15 mg/kg intragastric daily)	Autonomous movement Speed ([3]; 15 mg/kg intragastric daily)	Autonomous movement Distance ([3]; 30 mg/kg intragastric daily)	Autonomous movement Speed ([3]; 30 mg/kg intragastric daily)	Percentage of entries into open arms relative to total entries into arms ([4]; 7.5 mg/kg intragastric daily)	Percentage of residence time in open arms ([4]; 7.5 mg/kg intragastric daily)	Percentage of entries into open arms relative to total entries into arms ([4]; 15 mg/kg intragastric daily)	Percentage of residence time in open arms ([4]; 15 mg/kg intragastric daily)	Percentage of entries into open arms relative to total entries into arms ([4]; 30 mg/kg intragastric daily)	Percentage of residence time in open arms ([4]; 30 mg/kg intragastric daily)	EC50 (GSK-3β) [µM]	ALT ([5]; mouse, in vivo, 60 mg/kg/day) [U/L]	AST ([5]; mouse, in vivo, 60 mg/kg/day) [U/L]	Sucrose solution preference ([2]; 60 mg/kg intragastric daily) [%]	Autonomous movement Distance ([3]; 60 mg/kg intragastric daily) [mm]	other results
5-bromo-7-ethoxy fangchinoline [Compound 4]	79.2 ± 3.4^##,$$ %	81.5 ± 4.7^##,$$ %	93.6 ± 3.2^##,$$ %	13257.21 ± 756.36^##,$$ mm	44.19 ± 2.64^##,$$ mm/second	13615.71 ± 743.43^##,$$ mm	45.39 ± 4.02^##,$$ mm/second	14362.26 ± 771.52^##,$$ mm	47.87 ± 5.36^##,$$ mm/second	54.2 ± 2.6^##,$ %	66.2 ± 3.4^##,$$ %	55.3 ± 4.0^##,$ %	69.5 ± 4.2^##,$$ %	59.7 ± 5.3^##,$$ %	68.6 ± 3.2^##,$$ %	–	–	–	–	–	Forced swimming Immobility time ([1]; 7.5 mg/kg intragastric daily): 134.3 ± 4.4^##,$$ seconds; Forced swimming Immobility time ([1]; 15 mg/kg intragastric daily): 96.1 ± 3.74^##,$$ seconds; Forced swimming Immobility time ([1]; 30 mg/kg intragastric daily): 60.5 ± 5.3^##,$$ seconds
COc1ccc2cc1Oc1ccc(cc1)CC1c3cc(c(OC)cc3CCN1C)Oc1c(OC)c(OC)c(Cl)c3c1C(C2)N(C)CC3 (stereo not drawn) [Compound 1, 5-chloro-7-methoxy fangchinoline]	69.6 ± 4.6 %	78.8 ± 4.0^##,$$ %	81.6 ± 3.7^##,$$ %	7581.17 ± 845.04^##,$$ mm	25.27 ± 2.38^##,$$ mm/second	9518.08 ± 704.12^##,$$ mm	31.73 ± 3.44^##,$$ mm/second	10347.64 ± 923.01^##,$$ mm	34.49 ± 3.75^##,$$ mm/second	41.2 ± 2.3 %	53.6 ± 4.6^##,$$ %	46.7 ± 3.4 %	60.8 ± 4.0^##,$$ %	53.9 ± 3.5^##,$$ %	60.6 ± 3.7^##,$$ %	3.21	80.9 ± 21.4	117.7 ± 16.1	–	–	AST/ALT ([5]; mouse, in vivo, 60 mg/kg/day): 1.45 ± 0.21
CCOc1c(OC)c(Br)c2c3c1Oc1cc4c(cc1OC)CCN(C)C4Cc1ccc(cc1)Oc1cc(c(Br)cc1OC)CC3N(C)CC2 (stereo not drawn) [Compound 5, 5,14-dibromo-7-ethoxy fangchinoline]	84.1 ± 3.3 %	86.0 ± 3.5^##,$$ %	91.5 ± 4.2^##,$$ %	13732.42 ± 732.45^##,$$ mm	45.77 ± 2.64^##,$$ mm/second	14003.63 ± 737.47^##,$$ mm	46.68 ± 4.02^##,$$ mm/second	14561.84 ± 807.52^##,$$ mm	48.54 ± 5.36^##,$$ mm/second	–	–	–	–	–	–	1.26	91.7 ± 15.5	101.5 ± 18.7	–	–	melting point: 186 to 188 °C
COc1ccc2cc1Oc1ccc(cc1)CC1c3cc(c(OC)cc3CCN1C)Oc1c(OC(C)C)c(OC)cc3c1C(C2)N(C)CC3 (stereo not drawn) [Compound 8, 7-isopropoxy fangchinoline]	80.5 ± 3.6 %	84.7 ± 3.2^##,$ %	90.1 ± 3.8^##,$$ %	9968.41 ± 965.52^##,$$ mm	33.22 ± 2.64^##,$$ mm/second	12194.23 ± 887.65^##,$$ mm	40.64 ± 4.02^##,$$ mm/second	13053.78 ± 1005.46^##,$$ mm	43.51 ± 5.36^##,$$ mm/second	–	–	–	–	–	–	1.35	80.1 ± 21.3	89.2 ± 16.7	–	–	–
COc1cc2c3cc1Oc1c(OC)c(OC)cc4c1[C@@H](Cc1ccc(O)c(c1)Oc1ccc(cc1)C[C@@H]3N(C)CC2)N(C)CC4 [berbamine, reference compound]	–	–	55.05 ± 3.06%	–	–	–	–	1387.56 ± 584.24 mm	4.63 ± 1.49 mm/second	–	–	–	–	38.3 ± 1.9%	41.0 ± 3.0%	> 10	–	–	49.56 ± 4.27	1053.45 ± 476.33	Autonomous movement Speed ([3]; 60 mg/kg intragastric daily): 3.51 ± 1.65 mm/second; Percentage of entries into open arms relative to total entries into arms ([4]; 60 mg/kg intragastric daily): 37.5 ± 1.6%; Percentage of residence time in open arms ([4]; 60 mg/kg intragastric daily): 39.6 ± 4.2%
COc1ccc2cc1Oc1ccc(cc1)C[C@H]1c3cc(c(OC)cc3CCN1C)Oc1c(OC)c(OC)cc3c1[C@H](C2)N(C)CC3 [tetrandrine, reference compound]	55.4 ± 3.2%	52.9 ± 3.7%	67.7 ± 3.3 %	1369.54 ± 532.47 mm	4.57 ± 1.85 mm/second	1124.37 ± 504.85 mm	3.75 ± 1.98 mm/second	1027.36 ± 456.76 mm	3.42 ± 1.33 mm/second	38.0 ± 2.3%	42.1 ± 3.7%	39.5 ± 3.0%	40.6 ± 4.8%	43.8 ± 3.2%	41.3 ± 3.0%	9.02	–	–	70.2 ± 4.6	1285.41 ± 401.24	Autonomous movement Speed ([3]; 60 mg/kg intragastric daily): 4.28 ± 1.56 mm/second; Percentage of entries into open arms relative to total entries into arms ([4]; 60 mg/kg intragastric daily): 46.2 ± 2.9 %; Percentage of residence time in open arms ([4]; 60 mg/kg intragastric daily): 42.8 ± 3.5%; AST activity and the AST/ALT ratio ([5]; mice, 30 mg/kg intragastric, 14 consecutive days): evidently enhanced; change in AST activity, ALT activity and the ratio thereof (AST/ALT) in blood serum ([5]; mice, 60 mg/kg intragastric, 14 consecutive days): all evidently enhanced; ALT [5, 6]: 83.8 ± 15.9 U/L; AST [5, 6]: 204.8 ± 21.8 U/L; AST/ALT [5, 6]: 2.44 ± 0.21; ALT [5, 7]: 113.2 ± 20.6 U/L; AST [5, 7]: 205.6 ± 22.8 U/L; AST/ALT [5, 7]: 1.82 ± 0.26
